Measurements taken from the NIST ThermoML archive (doi:10.1021/acs.jced.8b00583).
Numbers after ± are expanded uncertainties.

Conditions: for electrical conductivity / viscosity / mass density: 100 kPa; for electrical conductivity / viscosity / mass density / surface tension liquid-gas: Liquid; for electrical conductivity: Alternating current cell with electrodes; for viscosity: Capillary tube (Ostwald / Ubbelohde) method; for mass density: Vibrating tube method; for surface tension liquid-gas: Maximal bubble pressure; for Glass transition temperature: DSC

CC(=O)O.CCCCN [butylammonium acetate]
Conditions	Glass transition temperature [°C]	electrical conductivity [S/m]	mass density [kg/m3]	surface tension liquid-gas [mN/m]	viscosity [mPa·s]
–	-98.90 ± 2.1	–	–	–	–
293.15 K	–	0.051 ± 0.005	959.02 ± 1.9	31.5 ± 0.3	771.6 ± 84
298.15 K	–	0.065 ± 0.007	955.95 ± 1.9	31.1 ± 0.3	546.33 ± 58
303.15 K	–	0.082 ± 0.008	952.87 ± 1.9	30.8 ± 0.3	397.17 ± 42
308.15 K	–	0.103 ± 0.01	949.87 ± 1.9	30.5 ± 0.3	294.59 ± 31
313.15 K	–	0.128 ± 0.013	946.81 ± 1.9	30.1 ± 0.3	222.26 ± 23
318.15 K	–	0.159 ± 0.016	943.73 ± 1.9	29.8 ± 0.3	163.91 ± 17
323.15 K	–	0.197 ± 0.02	940.83 ± 1.9	29.5 ± 0.3	126.15 ± 13
328.15 K	–	0.244 ± 0.024	937.8 ± 1.9	29.1 ± 0.3	95.03 ± 9.6
333.15 K	–	0.299 ± 0.03	934.68 ± 1.9	28.8 ± 0.3	77.93 ± 7.8

CCCC[NH3+].O=C[O-] [butylammonium formate]
Conditions	Glass transition temperature [°C]	electrical conductivity [S/m]	mass density [kg/m3]	surface tension liquid-gas [mN/m]	viscosity [mPa·s]
–	-108.50 ± 2.1	–	–	–	–
293.15 K	–	0.287 ± 0.029	976.96 ± 2	33.8 ± 0.3	160.19 ± 16
298.15 K	–	0.332 ± 0.033	973.8 ± 2	33.3 ± 0.3	120.82 ± 12
303.15 K	–	0.384 ± 0.038	970.66 ± 1.9	32.9 ± 0.3	92.68 ± 9.3
308.15 K	–	0.443 ± 0.044	967.48 ± 1.9	32.4 ± 0.3	72.01 ± 7.2
313.15 K	–	0.511 ± 0.051	964.4 ± 1.9	32 ± 0.3	57.07 ± 5.7
318.15 K	–	0.588 ± 0.059	961.21 ± 1.9	31.5 ± 0.3	45.61 ± 4.6
323.15 K	–	0.67 ± 0.07	958.02 ± 1.9	31.1 ± 0.3	37.22 ± 3.7
328.15 K	–	0.761 ± 0.076	954.95 ± 1.9	30.6 ± 0.3	30.62 ± 3.1
333.15 K	–	0.873 ± 0.087	951.82 ± 1.9	30.2 ± 0.3	25.39 ± 2.5

CCC(=O)[O-].CCCC[NH3+] [butylammonium propanoate]
Conditions	Glass transition temperature [°C]	electrical conductivity [S/m]	mass density [kg/m3]	surface tension liquid-gas [mN/m]	viscosity [mPa·s]
–	-89.40 ± 2.1	–	–	–	–
293.15 K	–	0.049 ± 0.005	933.95 ± 1.9	28.1 ± 0.3	916.56 ± 100
298.15 K	–	0.06 ± 0.006	930.84 ± 1.9	27.8 ± 0.3	669.24 ± 72
303.15 K	–	0.074 ± 0.007	927.79 ± 1.9	27.5 ± 0.3	494.64 ± 53
308.15 K	–	0.091 ± 0.009	924.86 ± 1.9	27.1 ± 0.3	371.06 ± 39
313.15 K	–	0.111 ± 0.011	921.76 ± 1.9	26.8 ± 0.3	280.47 ± 29
318.15 K	–	0.135 ± 0.014	918.77 ± 1.9	26.5 ± 0.3	211.76 ± 22
323.15 K	–	0.164 ± 0.016	915.69 ± 1.8	26.2 ± 0.3	162.68 ± 17
328.15 K	–	0.196 ± 0.02	912.7 ± 1.8	25.9 ± 0.3	128.4 ± 13
333.15 K	–	0.234 ± 0.023	909.66 ± 1.8	25.6 ± 0.3	99.35 ± 10

CCCC(=O)[O-].CCCC[NH3+] [n-butylammonium butanoate]
Conditions	Glass transition temperature [°C]	electrical conductivity [S/m]	mass density [kg/m3]	surface tension liquid-gas [mN/m]	viscosity [mPa·s]
–	-81.80 ± 2.1	–	–	–	–
293.15 K	–	0.031 ± 0.003	907.81 ± 1.8	25.7 ± 0.3	1112 ± 120
298.15 K	–	0.038 ± 0.004	904.94 ± 1.8	25.4 ± 0.3	812.6 ± 89
303.15 K	–	0.047 ± 0.005	902.06 ± 1.8	25.1 ± 0.3	599.38 ± 64
308.15 K	–	0.059 ± 0.006	899.18 ± 1.8	24.8 ± 0.3	448.37 ± 47
313.15 K	–	0.073 ± 0.007	896.28 ± 1.8	24.5 ± 0.3	338.47 ± 35
318.15 K	–	0.089 ± 0.009	893.32 ± 1.8	24.2 ± 0.3	262.05 ± 27
323.15 K	–	0.109 ± 0.011	890.57 ± 1.8	23.9 ± 0.3	199.16 ± 20
328.15 K	–	0.132 ± 0.013	887.56 ± 1.8	23.6 ± 0.3	154.43 ± 16
333.15 K	–	0.159 ± 0.016	884.61 ± 1.8	23.4 ± 0.3	126.18 ± 13
